{
  "source": "patent US12180143B1",
  "about": "“8-((4-hydroxy-3-methoxyphenyl)diazenyl)naphthalene-1,3-disulfonic acid as an antioxidant compound” (KING FAISAL UNIVERSITY, priority 2023, dated 2024)",
  "experiment": "DPPH radical scavenging antioxidant test",
  "type": "biochemical",
  "settings": "517 nm; for Inhibition (radical scavenging inhibition): 0.2 mL DPPH (0.75 mM), compound 3 μM in ethanol, 30 min incubation in the dark",
  "description": "The antioxidant properties of the 8-((4-hydroxy-3-methoxyphenyl)diazenyl) naphthalene-1,3-disulfonic acid were studied by adding 0.2 mL DPPH (0.75 mM)) to compound 8-((4-hydroxy-3-methoxyphenyl)diazenyl) naphthalene-1,3-disulfonic acid (III) (3 μM) in ethanol. After 30 min of incubation in the dark, the absorbance was read against a blank at 517 nm. Ascorbic acid (vitamin C) was used as standard antioxidants (positive control). A blank sample was prepared by 0.2 ml of DPPH in 3 mL ethanol. A negative control sample was run using ethanol instead of the sample. The radical scavenging inhibition was calculated using the following equation: […]",
  "data": [
    {"molecule": "O=C1O[C@H]([C@@H](O)CO)C(O)=C1O", "note": "[vit c, Ascorbic acid, reference compound]", "values": [
      {"measurement": "Inhibition (radical scavenging inhibition)", "result": 74, "unit": "%"}
    ]},
    {"molecule": "COc1cc(/N=N/c2cccc3cc(S(=O)(=O)O)cc(S(=O)(=O)O)c23)ccc1O", "note": "[Product III, 8-((4-hydroxy-3-methoxyphenyl)diazenyl) naphthalene-1,3-disulfonic acid]", "values": [
      {"measurement": "Inhibition (radical scavenging inhibition)", "result": 48, "unit": "%"},
      {"measurement": "antioxidant potential to vanish the DPPH radical distinctive colors, compared to vitamin C", "setting": "DPPH in vitro test, vitamin C as positive control", "result": "high potential as an antioxidant compared to vitamin C"}
    ]}
  ]
}
